Here are results for 97 compounds from the kinase profiling compilation of Christmann-Franck et al. (2016).

The target of the test is SGK1 (human) (UniProt O00141). The test is described as follows: Flashplate.
SGK1 (human), sequence (O00141 whole entry, looked up): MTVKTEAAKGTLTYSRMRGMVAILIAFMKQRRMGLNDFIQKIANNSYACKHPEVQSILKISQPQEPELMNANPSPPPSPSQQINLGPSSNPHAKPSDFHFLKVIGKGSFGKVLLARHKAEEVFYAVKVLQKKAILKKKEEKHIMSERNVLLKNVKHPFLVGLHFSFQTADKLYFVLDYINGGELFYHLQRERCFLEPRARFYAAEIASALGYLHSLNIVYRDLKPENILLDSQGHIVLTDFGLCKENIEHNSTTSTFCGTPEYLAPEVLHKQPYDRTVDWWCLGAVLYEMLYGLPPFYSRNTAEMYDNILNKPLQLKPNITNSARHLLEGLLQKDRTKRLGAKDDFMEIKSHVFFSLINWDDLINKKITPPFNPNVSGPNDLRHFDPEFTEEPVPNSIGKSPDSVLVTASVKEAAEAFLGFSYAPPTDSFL
For `COc1ccc(OC)c(Nc2ccc3nnc(-c4ccccc4)n3n2)c1`, the Ki is greater than 10 µM.

For `Cc1c(O)ccc2c1CCC/C2=N/NC(=O)Cc1cccc2ccccc12`, the Ki turned out to be 0.501 µM. In other words, the sub-micromolar range.

As to `Cc1cccc(NC(=O)Nc2ccc(-c3csc4c(C#Cc5cccnc5)cnc(N)c34)cc2)c1`, the inhibitory constant (Ki) is greater than 10 µM.

The compound `O=C(Nc1ccc2[nH]ncc2c1)c1ccc(Cl)cc1` gave a Ki of 7.94 µM.

Turning to `O=C(Nc1ccc2cn[nH]c2c1)c1ccc(Cl)cc1`, the Ki was greater than 10 µM.

Compound `CNC(=O)N1CCN(CCCOc2ccc3c(c2)-c2[nH]nc(-c4ccc(C#N)nc4)c2C3)CC1` displayed an inhibitory constant (Ki) greater than 10 µM.

On to `NCCCNS(=O)(=O)c1cccc(C(=O)Nc2ccc(-c3n[nH]c(=O)c4ccccc34)cc2)c1`, for which the Ki was greater than 10 µM.

As to `O=C1Nc2ccccc2Nc2nnc(Cl)cc21`, the Ki was determined as 5.01 µM.

`S=c1[nH]nc2c3c4c(sc3n3c(=S)[nH]nc3n12)CCC4` had a Ki of 1.58 µM.

`CCCS(=O)(=O)Nc1ccc(-c2ccc3[nH]nc(N)c3c2)cc1` returned a Ki of 0.316 µM.

In turn, `COc1cccc(CNC(=O)c2cc3c(-c4ccccc4)n[nH]c3s2)c1` displayed a Ki of 0.794 µM.

`O=C(Cc1ccccc1)Nc1cccc(-c2nc3sccn3c2-c2ccnc(Nc3ccc(N4CCOCC4)cc3)n2)c1` showed a Ki greater than 10 µM.

In turn, `Cc1cccc(NC(=O)Nc2ccc(-c3csc4c(C#CCCCCCCCCN)cnc(N)c34)cc2)c1` had a Ki of 2 µM.

The compound `O=C(Nc1cnc2[nH]cc(-c3ccccc3)c2c1)c1cccc(F)c1F` registered a Ki of 7.94 µM.

As to `Oc1cccc(Nc2ncnc3scc(Cl)c23)c1`, the Ki is greater than 10 µM.

`CC1=NN(c2ccc(Cl)c(Cl)c2)C(=O)/C1=C\c1c(C)c(C#N)c2nc3ccccc3n2c1O` registered a Ki greater than 10 µM.

The compound `Cc1cc(O)ccc1-n1cc(C(=O)NN)c(=O)c2ccc(-c3ccncc3)cc21` registered a Ki greater than 10 µM.

`Cn1cc(-c2cnc(N)c3c(-c4ccc(NC(=O)Nc5cccc(F)c5)cc4)csc23)cn1` yielded a Ki of 2 µM. This lies in the single-digit micromolar range.

As to `O=c1[nH]cc(I)c2nc(-c3ccccc3)cn12`, the Ki was greater than 10 µM.

The compound `COc1cccc(/C=C2/S/C(=N\c3ccccc3)NC2=O)c1` gave a Ki greater than 10 µM.

In turn, `CN(C)c1cccc2c(S(=O)(=O)N(CCN)c3cncc(-c4ccc5cnccc5c4)c3)cccc12` had a Ki of 3.98 µM.

As for `O=C1NC(=O)C(c2cnc3ccccn23)=C1c1cn2c3c(cccc13)CN(C(=O)N1CCOCC1)CC2`, the Ki is greater than 10 µM.

Regarding `CCCCNC1=NS(=O)N=C1Nc1ccc(F)cc1` (configuration not stated), the Ki was greater than 10 µM.

With `COc1cc(-c2ccc3c(c2)Nc2ccc(C(=O)NCCNC(C)=O)cc2NC3=O)ccc1O`, the Ki is 10 µM.

Regarding `O=C1Cc2c([nH]c3ccc(Br)cc23)-c2ncccc2N1`, the Ki was greater than 10 µM.

For `CCCC(=O)Nc1n[nH]c2nc3ccccc3cc12`, the Ki was greater than 10 µM.

In the case of `O=c1c(NCc2ccc(Cl)cc2)c(Nc2ccncc2)c1=O`, the Ki was determined as 2 µM.

The compound `Nc1nccc2scc(-c3ccc(NC(=O)Nc4cccc(F)c4)cc3)c12` registered a Ki greater than 10 µM.

`Cc1c(C)n(Cc2ccccc2)c2ccc(C(=O)Nc3nc[nH]n3)cc12` displayed a Ki greater than 10 µM.

With `Nc1ncnc2c1sc1ncnc(N)c12`, the Ki was 0.158 µM.

Compound `Cn1c2ccccc2c2c3c(c4c5ccccc5n(CCC#N)c4c21)CNC3=O` registered a Ki greater than 10 µM.

As to `Nc1noc2cccc(-c3cccc(O)c3)c12`, the Ki was greater than 10 µM.

As to `O=c1c2c([nH]c3cc(-c4ccco4)nn13)CSC2`, the Ki was greater than 10 µM.

Regarding `COc1cc(C=O)c(Cl)cc1NC(=O)Nc1cnc(C#N)cn1`, the Ki is greater than 10 µM.

`OCCCNc1ncnc2[nH]cc(-c3ccccc3)c12`: the Ki is greater than 7.94 µM.

The compound `Cc1nn(C)c(C)c1-c1cccc2c(CCCOc3cccc4ccccc34)c(C(=O)O)[nH]c12` came in with an inhibition constant Ki greater than 10 µM.

As for `CC(C)Oc1nccn2c(-c3ccnc(NCC(C)(C)O)n3)c(-c3ccc(F)cc3F)nc12`, the Ki was greater than 10 µM.

As to `Cc1cc(O)ccc1-n1cc(C(N)=O)c(=O)c2ccc(-c3ccncc3)cc21`, the Ki is greater than 10 µM.

As for `N#Cc1ccc(-c2n[nH]c3c2Cc2ccc(OCCCCN4CCOCC4)cc2-3)cn1`, the Ki was greater than 10 µM.

Compound `CNc1ncnc2c1N=C(c1ccc(NC(=O)Nc3cccc(C(F)(F)F)c3)cc1)CCN2` displayed a Ki greater than 10 µM.

The compound `Cc1cccc(/C=N/Nc2cc(N3CCOCC3)nc(OCCc3ccccn3)n2)c1` had a Ki greater than 10 µM.

As to `Cc1n[nH]c2c1C(c1ccccc1F)C1=C(CC(C)(C)CC1=O)N2` (configuration not stated), the Ki is greater than 10 µM.

Compound `CNC(=O)COc1ccc(Nc2nc(Nc3ccc(C)c(S(N)(=O)=O)c3)ncc2F)cc1` had an inhibition constant (Ki) greater than 10 µM.

In turn, `Cc1c(-c2ccc3[nH]nc(N)c3c2)nnn1Cc1ccccc1` displayed a Ki of 0.316 µM.

Compound `O=C(CO)N1CCC(c2[nH]nc(-c3ccc(Cl)cc3F)c2-c2ccncn2)CC1` yielded a Ki greater than 10 µM.

In turn, `CCCn1c(C2CCNCC2)nc(-c2ccc(Cl)c(Cl)c2)c1-c1ccnc(NC2CCCCC2)n1` had a Ki of 3.16 µM.

`OC1CCN(c2ncnc3[nH]cc(-c4ccccc4)c23)CC1` displayed a Ki of 3.98 µM. The Ki values of the last two compounds are within 1.5-fold of each other.

The compound `Cc1ccc(F)c(-c2ccc3nnc(N)n3c2)c1` had a Ki greater than 10 µM.

`Clc1cc(-c2c[nH]c3ncccc23)cc(NCc2ccccc2)n1` displayed a Ki of 0.398 µM.

`CC(C)(C)OC(=O)n1cc(-c2cncn2C2CCCCC2)c2ccccc21` came in with a Ki greater than 10 µM.

In turn, `Nc1ncnc2scc(-c3ccc(NC(=O)Nc4cc(C(F)(F)F)ccc4F)cc3)c12` yielded a Ki of 3.16 µM.

As for `CCN(CC)CCOc1ccc(-c2nc3c(C(N)=O)cccc3[nH]2)cc1`, the Ki was greater than 10 µM.

On to `O=C1Nc2ccccc2Nc2nnc(I)cc21`, for which the Ki came to 3.98 µM.

As to `Cc1cc(C)c(C)c(OCCCc2c(C(=O)O)[nH]c3c(-c4ccccc4C)cccc23)c1`, the Ki was greater than 10 µM.

Take `Nc1nccc(-c2c(-c3ccc(F)cc3)ncn2C2CCNCC2)n1`: the Ki worked out at 6.31 µM.

With `Cc1n[nH]c2ncc(C#N)c(-c3ccccc3)c12`, the Ki is 3.98 µM.

For `Nc1ncnn2ccc(C(=O)Nc3ccc(NC(=O)Nc4cccc(F)c4)cc3)c12`, the Ki was greater than 10 µM.

`O=C(Nc1cccc(C(F)(F)F)n1)Nc1ccnc2c(F)cccc12` gave a Ki greater than 10 µM.

`N#Cc1ccc2nc(N)n(-c3nc(-c4ccccc4)cs3)c2c1`: the Ki is greater than 10 µM.

For the compound `COc1cc(-c2ccc3c(c2)Nc2ccc(CCOc4ccc(N5CCOCC5)cc4)cc2NC3=O)ccc1CC#N`, the Ki was greater than 10 µM.

Compound `CS(=O)c1ccc(-c2nc(-c3ccc(F)cc3)c(-c3ccncc3)[nH]2)cc1` (configuration not stated) gave a Ki greater than 7.94 µM.

For the compound `O=C(Nc1cnccn1)Nc1ccnc2cc(C(F)(F)F)ccc12`, the Ki stood at 1 µM.

In turn, `O=C(NCc1ccccc1)Nc1ncc([N+](=O)[O-])s1` had a Ki greater than 10 µM.

`FC(F)(F)Oc1ccc(-c2ccc3[nH]cc(C4=CCNCC4)c3c2)cc1` returned a Ki greater than 10 µM.

Consider `O=c1c(NCc2cccc(C(F)(F)F)c2)c(Nc2ccncc2)c1=O`, for which the Ki is 2 µM. In other words, the single-digit micromolar range.

`O=c1[nH]cnc2c1oc1ccc(Cl)cc12` showed a Ki greater than 10 µM.

With `Cc1cccc(NC(=O)Nc2ccc(-c3csc4ccnc(N)c34)cc2)c1`, the Ki was greater than 10 µM.

`COCCNc1nccc(-c2c(-c3ccc(F)cc3)nc3cnccn23)n1`: the Ki is greater than 10 µM.

Take `Cn1c(NC[C@@H](N)Cc2ccccc2)nc(-c2ccncc2)c(-c2ccc3ccccc3c2)c1=O`: the Ki is greater than 7.94 µM.

In turn, `CC(C)Oc1nccn2c(-c3ccnc(NCC(C)(C)CO)n3)c(-c3ccc(F)cc3F)nc12` came in with a Ki greater than 10 µM.

Turning to `CCCC(=O)Nc1cccc(-c2nc(Nc3ccc4[nH]ncc4c3)c3cc(OCCN4CCCC4)ccc3n2)c1`, the Ki amounted to 0.501 µM.

Consider `O=C(Nc1cccc(Cl)c1)Nc1ncc(CCNc2ncnc3ccsc23)s1`, for which the Ki is greater than 10 µM.

`CCOC(=O)c1ccc2[nH]c3c(c2c1)CCNC3=O`: the Ki came to 6.31 µM.

`COc1cncc(/C=C/c2ccncc2)c1` gave a Ki greater than 10 µM.

With `O=C(Nc1cnccn1)Nc1ccnc2c(C(F)(F)F)cccc12`, the Ki is greater than 10 µM.

For the compound `Cc1cccc(NC(=O)Nc2ccc(-c3cncc4c3c(N)nn4C)cc2)c1`, the Ki was greater than 7.94 µM.

`COc1cccc2c1Nc1cc(Nc3ccncc3)ccc1C(=O)N2`: the Ki is greater than 10 µM.

Turning to `CC1=NN(c2cccc(Br)c2)C(=O)/C1=C/c1c(C)c(C#N)c2nc3ccccc3n2c1O`, the Ki is greater than 10 µM.

For `O=C(O)c1ccc(N2C(=O)c3ccccc3C2=O)cc1O`, the Ki was greater than 10 µM.

In turn, `O=C(Nc1cccc(N2CCOCC2)n1)Nc1ccnc2c(C(F)(F)F)cccc12` registered a Ki greater than 10 µM.

As to `CCn1c(C)c(-c2ccnc(Nc3cccc(OC)c3)n2)sc1=O`, the Ki is 0.316 µM.

`Nc1ncnc(Nc2cc(CNC(=O)C(F)(F)F)c(O)c(-c3ccc(Cl)cc3)c2)n1`: the Ki was greater than 10 µM.

Turning to `CCOc1nc(NC(=O)Cc2cc(OC)ccc2OC)cc(N)c1C#N`, the Ki is greater than 10 µM.

`COc1ccc(C(=O)Nc2nc3ccc(Cl)cc3s2)c(OC)c1` showed a Ki greater than 10 µM.

The compound `Cc1cc(O)ccc1-n1c2cc(Cl)ccc2c(=O)c2c(N)nc(N)nc21` displayed a Ki of 5.01 µM. This counts as single-digit micromolar.

On to `CNC(=O)/C=C/c1cnc(N)c2c(-c3ccc4c(c3)OCO4)csc12`, for which the Ki is greater than 10 µM.

As to `CNC(=O)c1cc(Oc2ccc(NC(=O)Nc3cccc(C(F)(F)F)c3)cc2)ccn1`, the Ki is greater than 10 µM.

Consider `N[C@@H](Cc1c[nH]c2ccccc12)C(=O)Nc1cncc(/C=C/c2ccncc2)c1`, for which the Ki was determined as 3.16 µM. In other words, the single-digit micromolar range.

`c1ccc(Cc2cc(-c3ccc4[nH]ncc4c3)on2)cc1` showed a Ki of 1.58 µM.

The compound `CC(C)(C(N)=O)n1cc(-c2cnc(N)c3c(-c4ccc(NC(=O)Nc5cccc(F)c5)cc4)csc23)cn1` showed a Ki of 3.16 µM.

On to `C[C@@H](O)Cn1cc(-c2cnc(N)c3c(-c4ccc(NC(=O)Nc5cccc(F)c5)cc4)csc23)cn1`, for which the Ki was determined as 2.51 µM.

As for `Brc1ccc2[nH]nc(-c3ccccc3)c2c1`, the Ki was greater than 10 µM.

Turning to `Cc1nccn2c(-c3ccnc(NCC(C)(C)O)n3)c(-c3ccc(F)cc3F)nc12`, the Ki was greater than 10 µM.

`c1ccc(CSc2nc(-c3ccncc3)n[nH]2)cc1`: the Ki worked out at 7.94 µM.

As to `Cc1cccc(NC(=O)Nc2ccc(-c3cccc4[nH]nc(N)c34)cc2)c1`, the Ki worked out at 1 µM.

Compound `CCn1c2cc(Cl)c(F)cc2c(=O)c2c(=O)o[nH]c21` registered a Ki greater than 10 µM.

In turn, `Clc1ccc(-c2n[nH]cc2-c2ccncn2)cc1Cl` registered a Ki greater than 10 µM.
